Holding throughout (assay type): in vivo, mouse
One data set has as its system blood glucose. Put plainly: OGTT and insulin measurements after 5 weeks of dosing in DIO mice. From the text:
(§1) In the next series of studies (Examples 93-99), Male DIO mice were received at 12 weeks of age (from Taconic), and were single-housed at the testing facility and acclimated for at least 2 weeks. The mice were provided a high fat diet [Research Diet D12492 (60% Fat kcal)] while in the testing facility. Before the study initiation, the animals were randomized into 5 experimental groups by body weight. The vehicle group contained only 0.5% carboxymethylcellulose (medium viscosity)+0.25% Tween-80. The second group contained 10 mg/kg of the DPP-IV inhibitor Sitagliptin while the third group contained 30 mg/kg Compound 268. The fourth group contained the combination of 10 mg/kg Sitagliptin and 30 mg/kg Compound 268. The fifth group was the positive control for weight loss, Rimonabant. All mice were dosed BID at approximately 6:00 am and again at approximately 4:00 pm. The positive control rimonabant was administered at a dose of 10 mg/kg in the afternoon and the morning dosing was vehicle (no compound). […]
Compounds of the present invention were dosed for multiple weeks and were evaluated for their effectiveness in glycemic control. […] Insulin is also analyzed using Meso Scale Discovery according to the manufacturer's directions (item number K152BZC). Plasma samples ([…]) were loaded in duplicate onto the assay plate and measured against internal standards.

Data set [1] in a line: Bile weight after a single oral administration in DIO mice. The following applies: 30 mg/kg + sitagliptin 10 mg/kg p.o., 6, 12, 18, 24 h. The procedure: Bile Weight after a Single Oral Administration of the Compound
In this study, we evaluated if the observed GLP-1 elevation (induced by the compounds of the present invention) may be associated with gallbladder filling. We treated mice with Compound 268 and monitored the bile weight (a measure that indicated gallbladder filling) to determine if the compound retained more bile in the gallbladder as compared to the control mice (i.e., vehicle alone). A time course study was performed to measure weight of the bile aspirated from the gallbladder after oral administration of Compound 268 (30 mg/kg) in high fat diet induced obese (DIO) mice. In this study, GLP-1 levels were also measured at each time point (FIG. 9).
Approximately 12 week old DIO male mice (obtained from Taconic) were acclimated in the testing facility for over two weeks. The mice were provided a high fat diet [Research Diet D12492 (60% Fat kcal)] while in the testing facility. […] The blood samples were distributed as follows: 150-200 μL of blood were placed in an EDTA K^2+ tube containing 5 μL of 40 mg/mL aprotinin (Sigma A1153) and 1 μL of 10 mM sitagliptin (Sigma 58576) to be used for GLP-1 measurements; the remaining blood (≥250 μL) was placed in an EDTA K^2+ tube and plasma was processed for analytical chemistry and analyzed by LCMS/MS method as described in Example 81. […]

The test system of another data set is GLP-1. Put plainly: GLP-1 levels after 6 weeks of dosing in DIO mice. The following applies: 30 mg/kg + sitagliptin 10 mg/kg BID, 6 h after final dose, versus sitagliptin alone.
Excerpt: as §1
Compounds of the present invention were dosed for multiple weeks and were evaluated to determine if they produce sustained GLP-1 levels.
In this example, the protocol from Example 93 was utilized. […] The active form of GLP-1 [GLP-1 (7-36) amide] was analyzed using Meso Scale Discovery System according to the manufacturer's directions (item number K150HYC). […]

Data set [2] can be described thus: Bile weight after 6 weeks of dosing in DIO mice. Particulars: about 6 h after final dose. From the text: (§2) In the next series of studies (Examples 93-99), Male DIO mice were received at 12 weeks of age (from Taconic), and were single-housed at the testing facility and acclimated for at least 2 weeks. The mice were provided a high fat diet [Research Diet D12492 (60% Fat kcal)] while in the testing facility. Before the study initiation, the animals were randomized into 5 experimental groups by body weight. The vehicle group contained only 0.5% carboxymethylcellulose (medium viscosity)+0.25% Tween-80. The second group contained 10 mg/kg of the DPP-IV inhibitor Sitagliptin while the third group contained 30 mg/kg Compound 268. The fourth group contained the combination of 10 mg/kg Sitagliptin and 30 mg/kg Compound 268. The fifth group was the positive control for weight loss, Rimonabant. All mice were dosed BID at approximately 6:00 am and again at approximately 4:00 pm. The positive control rimonabant was administered at a dose of 10 mg/kg in the afternoon and the morning dosing was vehicle (no compound).
No Bile Weight Increase after 6 Weeks of Dosing Compounds
Compounds of the present invention were dosed for multiple weeks and were evaluated to determine if they lead to an increase in bile weight.
In this example, the protocol from Example 93 was utilized. […]

The nature of data set [3]: 6-week DEXA body composition analysis in DIO mice. The following applies: 6 weeks BID dosing.
Excerpt: as §2
6-Week Dexa Analysis after Multiple Weeks of Dosing Compounds
Compounds of the present invention were dosed for multiple weeks and the mice were analyzed to determine whether weight loss seen in Example 93 was due to a loss in fat or lean mass.
In this example, the protocol from Example 93 was utilized. The day of experiment, the mice were anesthetized using 2.5% avertin [tert-amyl alcohol (Aldrich #15,256-3) and 2,2,2-tribromoethanol (Aldrich # T4, 840-2)]. Their body composition was assessed using the PIXImus2 X-ray unit (GE Lunar Corporation, Madison, Wis.) connected to a computer equipped with LUNAR PIXImus2 software. The head region of each mouse was excluded from the analysis. The following measurements were automatically measured or calculated by the PIXImus2 software: bone mineral density (BMD), bone mineral content (BMC), bone area (B Area), tissue area (T Area), percent fat, and total tissue mass (TTM). Fat mass, the percentage of lean mass, and lean mass, were calculated manually as follows: % Lean=100−% Fat Lean Mass=TTM×(100−% Fat) Fat Mass=TTM×% Fat

In the case of `N#Cc1ccc(CCNC(=O)[C@@H]2CCN2c2cc(N3CCC(CCNC(=O)NCCC(=O)O)CC3)nc(C(F)(F)F)n2)cc1` [Compound 268, (S)-3-(3-(2-(1-(6-(2-((4-cyanophenethyl)carbamoyl)azetidin-1-yl)-2-(trifluoromethyl)pyrimidin-4-yl)piperidin-4-yl)ethyl)ureido)propanoic acid], the “glucose levels in OGTT after 5 weeks of dosing” value with blood glucose (30 mg/kg + sitagliptin 10 mg/kg BID, versus vehicle) was “reduced the glucose levels relative to vehicle”. The “insulin levels in OGTT after 5 weeks of dosing” value in the data set with blood glucose (BID dosing) was “increased the sensitivity of the mice to insulin”. Further, the bile weight entry in data set [1] is listed as “did not cause any significant increase in bile weight”. Further, the “plasma GLP-1 level after 6 weeks of dosing” value with GLP-1 was “significantly increased level of GLP-1”. Also, the “bile weight / gallbladder size after 6 weeks of dosing” value in data set [2] was “does not show an increase in size”. Moreover, in data set [3], the “fat mass versus lean mass (DEXA)” value is reported as “due to a loss in the Fat Mass” and the “loss in weight / total tissue mass (DEXA)” value was “about the same loss in weight”.

The values above are taken from patent US10654834B2 (Venenum Biodesign, LLC, priority 2016, dated 2020).
